Molecular target: FecB E339S (Mycobacterium tuberculosis, UniProt O53291, E339S)
Format: binding

Q: carboxymycobactin [apo-cMB] was tested. Which Fold-decrease did it give?
A: ~1.7

Q: And the Kd?
A: 4.8 ± 0.3 µM
